Test results from the supplement of paper PMC10307832.

How the values were obtained:
Experiment in all cases: relative viability (nuclei count vs DMSO), 5 days (fraction); higher = more cells survive
Sunitinib + Trametinib = compound: CCN(CC)CCNC(=O)c1c(C)[nH]c(/C=C2\C(=O)Nc3ccc(F)cc32)c1C [Sunitinib] + CC(=O)Nc1cccc(-n2c(=O)n(C3CC3)c(=O)c3c(Nc4ccc(I)cc4F)n(C)c(=O)c(C)c32)c1 [Trametinib] (partner 0.02 µM)
Procedure, shortened: (§1)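 Relative viability was taken as the ratio of nuclei in treated wells to nuclei in vehicle wells. Lung cancer cell lines in 1536-well plates received compounds by pin tool one day after seeding, either one drug alone or a fixed anchor-drug dose plus five library-drug doses (not always all listed) in √10 steps. Nuclei were counted on 4× images after 5 days of treatment, and values are medians of duplicate plates.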

Sunitinib + Phenformin = compound: CCN(CC)CCNC(=O)c1c(C)[nH]c(/C=C2\C(=O)Nc3ccc(F)cc32)c1C [Sunitinib] + N=C(N)NC(=N)NCCc1ccccc1 [Phenformin] (partner 250 µM)
Procedure, shortened: as §1

Sunitinib + Pemetrexed = compound: CCN(CC)CCNC(=O)c1c(C)[nH]c(/C=C2\C(=O)Nc3ccc(F)cc32)c1C [Sunitinib] + Nc1nc2[nH]cc(CCc3ccc(C(=O)N[C@@H](CCC(=O)O)C(=O)O)cc3)c2c(=O)[nH]1 [Pemetrexed] (partner 0.2 µM)
Procedure, shortened: as §1

Sunitinib + Navitoclax = compound: CCN(CC)CCNC(=O)c1c(C)[nH]c(/C=C2\C(=O)Nc3ccc(F)cc32)c1C [Sunitinib] + CC1(C)CCC(c2ccc(Cl)cc2)=C(CN2CCN(c3ccc(C(=O)NS(=O)(=O)c4ccc(N[C@H](CCN5CCOCC5)CSc5ccccc5)c(S(=O)(=O)C(F)(F)F)c4)cc3)CC2)C1 [Navitoclax] (partner 0.5 µM)
Procedure, shortened: as §1

Cell Line | relative viability (Sunitinib + Trametinib; first compound 0.02 µM) | relative viability (Sunitinib + Trametinib; first compound 0.06325 µM) | relative viability (Sunitinib + Trametinib; first compound 0.2 µM) | relative viability (Sunitinib + Trametinib; first compound 0.6325 µM) | relative viability (Sunitinib + Trametinib; first compound 2 µM) | relative viability (Sunitinib + Phenformin; first compound 0.02 µM) | relative viability (Sunitinib + Phenformin; first compound 0.06325 µM) | relative viability (Sunitinib + Phenformin; first compound 0.2 µM) | relative viability (Sunitinib + Phenformin; first compound 0.6325 µM) | relative viability (Sunitinib + Phenformin; first compound 2 µM) | relative viability (Sunitinib + Pemetrexed; first compound 0.02 µM) | relative viability (Sunitinib + Pemetrexed; first compound 0.06325 µM) | relative viability (Sunitinib + Pemetrexed; first compound 0.2 µM) | relative viability (Sunitinib + Pemetrexed; first compound 0.6325 µM) | relative viability (Sunitinib + Pemetrexed; first compound 2 µM) | relative viability (Sunitinib + Navitoclax; first compound 0.02 µM) | relative viability (Sunitinib + Navitoclax; first compound 0.06325 µM) | relative viability (Sunitinib + Navitoclax; first compound 0.2 µM) | relative viability (Sunitinib + Navitoclax; first compound 0.6325 µM) | relative viability (Sunitinib + Navitoclax; first compound 2 µM)
NCI-H2405 | 0.59 | 0.582 | 0.662 | 0.672 | 0.628 | 0.399 | 0.391 | 0.406 | 0.395 | 0.406 | 1.07 | 1.1 | 1.21 | 1.13 | 1.13 | 0.985 | 0.892 | 0.909 | 1.14 | 0.977
NCI-H23 | 0.345 | 0.348 | 0.334 | 0.391 | 0.351 | 0.753 |  | 0.93 | 0.878 | 0.763 | 0.689 | 0.823 | 0.922 | 0.86 | 0.563 | 0.806 | 0.879 | 0.899 | 1.07 | 0.66
LXF-289 | 0.621 | 0.714 | 0.679 | 0.728 | 0.689 | 0.461 | 0.517 | 0.548 | 0.533 | 0.511 | 0.882 | 0.972 | 0.925 | 0.945 | 0.874 | 0.93 | 0.94 | 1 | 0.945 | 0.915
NCI-H1437 | 0.478 | 0.539 | 0.611 | 0.607 | 0.537 | 0.362 | 0.314 | 0.321 | 0.297 | 0.323 | 0.336 | 0.329 | 0.345 | 0.309 | 0.322 | 1.06 | 1.2 | 1.19 | 1.13 | 1.16
NCI-H727 | 0.409 | 0.412 | 0.412 | 0.396 | 0.367 | 0.475 | 0.733 | 0.649 | 0.67 | 0.538 |  |  |  |  |  | 0.433 | 0.45 | 0.454 | 0.523 | 0.396
RERF-LC-KJ | 0.903 | 0.854 | 0.953 | 0.87 | 0.86 | 0.422 | 0.407 | 0.48 | 0.411 | 0.404 | 0.472 | 0.483 | 0.485 | 0.418 | 0.49 | 0.844 | 0.899 | 1.13 | 0.876 | 0.977
PC-3 [JPC-3] | 0.754 | 0.715 | 0.667 | 0.772 | 0.59 | 0.478 | 0.484 | 0.471 | 0.502 | 0.468 | 1.35 | 1.08 | 1.13 | 1.11 | 1.03 | 0.843 | 0.906 | 0.846 | 0.879 | 0.797
PC-14 | 0.665 | 0.743 | 0.833 | 0.771 | 0.579 | 0.557 | 0.552 | 0.674 | 0.568 | 0.571 | 0.137 | 0.158 | 0.135 | 0.132 | 0.153 | 0.987 | 0.999 | 1.1 | 0.996 | 0.958
201T | 0.704 | 0.75 | 0.739 | 0.717 | 0.697 | 0.444 | 0.468 | 0.496 | 0.468 | 0.434 | 0.32 | 0.325 | 0.356 | 0.301 | 0.355 | 1.19 | 1.18 | 1.21 | 1.18 | 1.2
SW 1573 | 0.522 | 0.626 | 0.515 | 0.729 | 0.582 | 0.338 | 0.449 | 0.368 | 0.386 | 0.306 | 0.867 |  | 0.9 | 0.958 | 0.943 | 1.04 | 1.18 | 1.07 | 1.12 | 0.976
NCI-H441 | 0.432 | 0.581 | 0.518 | 0.524 | 0.409 | 0.729 | 0.816 | 0.781 | 0.957 | 0.793 | 0.263 | 0.253 | 0.278 | 0.235 | 0.257 |  | 0.684 | 0.946 | 0.808 | 0.368
NCI-H1355 | 0.44 | 0.438 | 0.567 | 0.437 | 0.376 | 0.441 | 0.453 | 0.473 | 0.482 | 0.432 | 0.997 | 1.14 | 1.1 | 1.08 |  | 0.841 | 0.961 | 0.921 | 0.923 | 0.983
UMC-11 | 0.709 | 0.793 | 0.811 | 0.787 | 0.783 | 0.331 | 0.352 | 0.355 | 0.324 | 0.309 | 0.669 | 0.838 | 0.843 | 0.885 | 0.772 | 0.302 | 0.307 | 0.367 | 0.281 | 0.272
Calu-6 |  |  |  |  |  |  |  |  |  |  |  |  |  |  |  | 0.896 | 0.772 | 0.923 | 0.972 | 0.914
NCI-H1299 |  |  |  |  |  |  |  |  |  |  |  |  |  |  |  | 1.03 | 1.11 | 1.05 | 1.03 | 1.09
NCI-H661 | 0.513 | 0.597 | 0.703 | 0.63 | 0.649 | 0.263 | 0.31 | 0.27 | 0.264 | 0.265 | 0.882 | 0.958 | 0.915 | 0.978 | 0.943 |  |  |  |  | 
LCLC-103H | 0.612 | 0.692 | 0.629 | 0.728 | 0.719 | 0.354 | 0.343 | 0.352 | 0.365 | 0.33 | 0.452 | 0.443 | 0.487 | 0.442 | 0.445 |  |  |  |  | 
ABC-1 |  |  |  |  |  | 0.218 | 0.254 | 0.218 | 0.242 | 0.225 |  |  |  |  |  |  |  |  |  | 
NCI-H1703 |  |  |  |  |  |  |  |  |  |  |  |  |  |  |  | 0.621 | 0.264 | 0.289 | 0.254 | 0.184
NCI-H358 | 0.137 | 0.143 | 0.138 | 0.127 | 0.14 | 0.322 | 0.447 | 0.373 | 0.348 | 0.29 | 0.178 | 0.181 | 0.177 | 0.177 | 0.167 |  |  |  |  | 
IA-LM |  |  |  |  |  |  |  |  |  |  |  |  |  |  |  | 0.767 | 0.912 | 0.929 | 0.872 | 0.814
